Source: patent US7585859B2, “PDE4B inhibitors and uses therefor” (Plexxikon, Inc., priority 2004, dated 2009)
Like-named read-outs stand apart in the source and are kept apart here.

Legend:
Type in all cases: biochemical
[1] = target: T1, PDE4B: The catalytic domain of human PDE4B from S152-S528 (Homo sapiens, UniProt Q07343); experiment: PDE4 IC50 determination by Scintillation Proximity Assay, PDE4B
T1 construct: His6 (N); thrombin cleavage site (N); made in house; host or cells: E. coli
How it was run: (§1)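 Radiometric SPA: PDE4B (80 ng/ml) or PDE4D (4 ng/ml) hydrolysed [^3H]cAMP over 30 min at 30°, and the bead-bound [^3H]AMP was scintillation-counted.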

PDE4D = target: T2, PDE4D (Homo sapiens, UniProt Q08499); experiment: PDE4 IC50 determination by Scintillation Proximity Assay, PDE4D
T2 construct: PDE4D: The catalytic domain of human PDE4B from S3 16-V692; His6 (N); thrombin cleavage site (N); made in house; host or cells: E. coli
How it was run: as §1

[2] = target: T3, full-length human PDE4B2 isozyme (Homo sapiens, UniProt Q07343); experiment: PDE4 IC50 determination by Scintillation Proximity Assay, PDE4B2
T3 construct: The full-length human PDE4B2 isozyme; His6 (N); TEV cleavage site (N); made in house; host or cells: baculovirus infected insect cells (unpurified lysate)
Description: (§2) IC50s were determined by Scintillation Proximity Assay (SPA). The principle of the assay is based on the fact that cAMP, the PDE4 substrate, binds weakly to Yittrium Silicate SPA beads, whereas AMP, the product of PDE4 hydrolysis binds strongly. Thus, the extent of PDE4 hydrolysis of a sample of [^3H]cAMP can be measured because only the
(§3) [^3H]AMP produced by PDE4 hydrolysis will bind to the SPA beads and produce a scintillation signal.
(§4) PDE4 enzymes used for IC50 assays were:
PDE4B2: The full-length human PDE4B2 isozyme with an N-terminal His6 tag (SEQ ID NO: 18) and TEV cleavage site expressed in baculovirus infected insect cells. The enzyme was not purified from the cell lysates, so enzyme concentrations were not determined. Enzyme was stored in 50% glycerol at −20°.
(§5) Compounds tested (see Tables 3B, 4B and 5A for compounds and results) were 3-fold serially diluted 11 times in DMSO from a starting concentration of 4 mM or 40 μM, depending on compound potency. 1 μl of each dilution was transferred into duplicate wells of a white polystyrene 384-well assay plate (Coming #3705). In addition to the compound dilutions, each assay plate contained control wells with 1 μl of DMSO (to define 0% enzyme inhibition) or 1 μl of 200 μM roflumilast (to define 100% enzyme inhibition). Using a Beckman FX robot, 10 μl of [^3H] cAMP (Amersham TRK559) at 2 mCi/ml in assay buffer (50 mM Tris, pH 7.5; 8.3 mM MgCl; 1.7 mM EGTA; 0.01% BSA) was transferred to each assay well. Next, 10 μl of PDE4 enzyme in assay buffer was added and the plates were shaken for 30 s. at 1000 rpm to start the cAMP hydrolysis reaction. The concentrations of enzyme used were: PDE4B, 80 ng/ml; PDE4D, 4 ng/ml; PDE4B2, 2.5 μl of 50% glycerol stock/ml; PDE4D5 0.083 μl of 50% glycerol stock/ml. Assay plates were covered and incubated for 30 min. at 30°. Reactions were stopped by robotic addition of 10 μl of 5 mg/ml SPA beads (Amersham RPNQ0013) in 18 mM ZnSO4. The assay plates were covered with clear plastic film, centrifuged for 1 min. at 1000 RPM to settle the SPA beads, and counted using a Wallac TriLux scintillation counter. IC50's were calculated from the raw assay data by non-linear regression curve fitting using the Assay Explorer software package from MDL.

[3] = target: T4, full-length human PDE4D5 isozyme (Homo sapiens, UniProt Q08499); experiment: PDE4 IC50 determination by Scintillation Proximity Assay, PDE4D5; conditions: Table 1B, Formula I compounds; read-out: IC50 PDE4D5
T4 construct: The full-length human PDE4D5 isozyme; His6 (N); TEV cleavage site (N); made in house; host or cells: baculovirus infected insect cells (unpurified lysate)
Description: as §2, §3, §4
PDE4D5: The full-length human PDE4D5 isozyme with an N-terminal His6 tag (SEQ ID NO: 18) and TEV cleavage site expressed in baculovirus infected insect cells. The enzyme was not purified from the cell lysates, so enzyme concentrations were not determined. Enzyme was stored in 50% glycerol at −20°.
as §5

[4] = Table 1B, Formula I compounds, read-out: IC50 PDE4B
[5] = Table 1B, Formula I compounds, read-out: IC50 PDE4D
[6] = Table 1B, Formula I compounds, read-out: IC50 PDE4B2
[7] = second part of Table 2B (2-23 to 2-103), column 3, column is PDE4B in first part, read-out: IC 50 vs. indicated assay h TNFα
[8] = second part of Table 2B (2-23 to 2-103), column 5, column is PDE4D in first part, read-out: IC 50 vs. indicated assay h TNFα
[9] = second part of Table 2B (2-23 to 2-103), column 4, column is PDE4B2 in first part, read-out: IC 50 vs. indicated assay h TNFα
[10] = Table 3A, Formula III compounds, read-out: IC50 PDE4B
[11] = Table 3A, Formula III compounds, read-out: IC50 PDE4D

T3 sequence (Q07343 1-564 isoform Q07343-2): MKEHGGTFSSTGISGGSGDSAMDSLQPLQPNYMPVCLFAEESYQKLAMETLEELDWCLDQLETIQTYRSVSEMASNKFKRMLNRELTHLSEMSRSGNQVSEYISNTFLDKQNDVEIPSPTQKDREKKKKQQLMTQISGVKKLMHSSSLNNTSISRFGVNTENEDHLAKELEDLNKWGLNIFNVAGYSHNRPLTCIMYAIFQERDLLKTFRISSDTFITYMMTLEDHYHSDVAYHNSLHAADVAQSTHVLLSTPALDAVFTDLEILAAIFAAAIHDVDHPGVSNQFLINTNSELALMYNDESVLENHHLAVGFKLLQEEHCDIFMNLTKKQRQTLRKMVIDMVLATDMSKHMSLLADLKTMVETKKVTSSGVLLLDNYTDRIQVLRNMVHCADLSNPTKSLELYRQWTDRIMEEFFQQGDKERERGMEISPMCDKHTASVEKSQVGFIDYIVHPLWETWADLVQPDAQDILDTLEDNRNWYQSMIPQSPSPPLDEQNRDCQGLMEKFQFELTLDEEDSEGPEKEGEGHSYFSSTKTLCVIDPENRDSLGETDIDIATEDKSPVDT
T2 sequence (Q08499 380-756): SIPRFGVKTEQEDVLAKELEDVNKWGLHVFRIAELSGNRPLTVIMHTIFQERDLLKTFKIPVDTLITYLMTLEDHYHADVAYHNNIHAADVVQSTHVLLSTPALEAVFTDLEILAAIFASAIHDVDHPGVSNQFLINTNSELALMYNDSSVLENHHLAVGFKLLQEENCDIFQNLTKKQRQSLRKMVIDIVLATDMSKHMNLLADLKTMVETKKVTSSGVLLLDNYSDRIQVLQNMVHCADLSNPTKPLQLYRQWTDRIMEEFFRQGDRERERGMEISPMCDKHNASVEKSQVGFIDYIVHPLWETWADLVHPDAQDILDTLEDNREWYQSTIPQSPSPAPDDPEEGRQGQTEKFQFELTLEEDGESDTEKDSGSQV
T1 sequence (Q07343 with tags, fused parts or gaps): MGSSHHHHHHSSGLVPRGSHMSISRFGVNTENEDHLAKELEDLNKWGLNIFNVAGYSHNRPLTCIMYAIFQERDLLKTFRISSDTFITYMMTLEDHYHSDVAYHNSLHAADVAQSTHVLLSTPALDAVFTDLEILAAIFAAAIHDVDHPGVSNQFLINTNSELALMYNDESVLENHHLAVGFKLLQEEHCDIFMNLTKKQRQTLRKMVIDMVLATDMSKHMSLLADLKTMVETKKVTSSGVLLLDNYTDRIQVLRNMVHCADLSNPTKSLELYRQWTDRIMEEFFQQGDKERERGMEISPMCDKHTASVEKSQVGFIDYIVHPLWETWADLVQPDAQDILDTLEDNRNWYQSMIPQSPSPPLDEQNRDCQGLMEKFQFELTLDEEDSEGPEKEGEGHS
T4 sequence (Q08499 1-745 isoform Q08499-6): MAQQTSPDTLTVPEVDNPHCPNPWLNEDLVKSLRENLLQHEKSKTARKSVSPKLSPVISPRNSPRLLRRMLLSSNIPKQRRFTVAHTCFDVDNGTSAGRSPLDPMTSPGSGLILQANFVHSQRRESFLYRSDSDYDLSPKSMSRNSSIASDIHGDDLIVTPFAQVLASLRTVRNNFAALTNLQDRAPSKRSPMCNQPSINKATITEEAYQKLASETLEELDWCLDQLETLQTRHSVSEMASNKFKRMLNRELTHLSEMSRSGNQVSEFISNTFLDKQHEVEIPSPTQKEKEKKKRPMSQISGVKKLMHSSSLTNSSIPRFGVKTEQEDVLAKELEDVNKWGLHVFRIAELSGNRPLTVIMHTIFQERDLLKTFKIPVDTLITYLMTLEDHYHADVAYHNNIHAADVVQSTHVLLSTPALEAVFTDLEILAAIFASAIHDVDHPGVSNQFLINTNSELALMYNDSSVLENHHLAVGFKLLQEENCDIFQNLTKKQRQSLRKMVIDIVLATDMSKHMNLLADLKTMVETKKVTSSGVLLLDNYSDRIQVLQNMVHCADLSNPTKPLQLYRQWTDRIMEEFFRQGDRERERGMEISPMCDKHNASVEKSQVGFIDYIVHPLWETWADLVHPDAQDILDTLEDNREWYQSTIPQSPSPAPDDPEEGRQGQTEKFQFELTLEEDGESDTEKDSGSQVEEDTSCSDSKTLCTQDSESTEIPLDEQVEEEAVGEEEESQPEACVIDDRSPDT

IC50 [1, 4] [µM] | IC50 (PDE4D; [5]) [µM] | IC50 [2, 6] [µM] | IC50 [3] [µM] | SMILES | also measured
< 10 | < 10 | < 10 | < 10 | CCOC(=O)c1c(Nc2ccccc2OC)sc(C(=O)c2ccc(Br)cc2)c1N [Compound 1-1, 4-Amino-5-(4-bromo-benzoyl)-2-(2-methoxy-phenylamino)-thiophene-3-carboxylic acid ethyl ester] | 
< 10 | < 10 | < 10 | < 10 | COc1ccccc1Nc1sc(C(=O)c2ccc(C)cc2)c(N)c1C#N [Compound 1-2, 4-Amino-2-(2-methoxy-phenylamino)-5-(4-methyl-benzoyl)-thiophene-3-carbonitrile] | 
> 10 | > 10 | > 10 | > 10 | NC(=O)c1c(Nc2ccccc2)sc(C(=O)c2ccccc2)c1N [Compound 1-12, 4-Amino-5-benzoyl-2-phenylamino-thiophene-3-carboxylic acid amide] | 
< 10 | > 10 | > 10 | > 10 | N#Cc1c(Nc2ccccc2)sc(C(=O)c2ccccc2)c1N [Compound 1-16, 4-Amino-5-benzoyl-2-phenylamino-thiophene-3-carbonitrile] | 
< 10 | < 10 | < 10 | < 10 | N#Cc1c(Nc2ccc(Cl)cc2)sc(C(=O)c2sccc2Cl)c1N [Compound 1-17, 4-Amino-2-(4-chloro-phenylamino)-5-(3-chloro-thiophene-2-carbonyl)-thiophene-3-carbonitrile] | 
< 10 | < 10 | < 10 |  | N#Cc1c(Nc2ccc(C(=O)NC3CCOC3=O)cc2)sc(C(=O)c2cc(-c3ccccc3)no2)c1N (stereo not drawn) [Compound 1-142, 4-[4-Amino-3-cyano-5-(3-phenyl-isoxazole-5-carbonyl)-thiophen-2-ylamino]-N-(2-oxo-tetrahydro-furan-3-yl)-benzamide] | 
< 10 | < 10 |  | > 10 | COc1ccc(Nc2sc(C(=O)c3cc(-c4ccc(Cl)cc4Cl)no3)c(N)c2C#N)cc1 [Compound 1-164, 4-Amino-5-[3-(2,4-dichloro-phenyl)-isoxazole-5-carbonyl]-2-(4-methoxy-phenylamino)-thiophene-3-carbonitrile] | 
< 10 | < 10 |  | < 10 | CC(C)NC(=O)c1cc(C(=O)c2sc(NC3CCCC3)c(C#N)c2N)on1 [Compound 1-189, 5-(3-Amino-4-cyano-5-cyclopentylamino-thiophene-2-carbonyl)-isoxazole-3-carboxylic acid isopropylamide] | 
< 10 | < 10 |  | < 10 | N#Cc1c(NC2CCCC2)sc(C(=O)c2cc(C(=O)NC3CC3)no2)c1N [Compound 1-190, 5-(3-Amino-4-cyano-5-cyclopentylamino-thiophene-2-carbonyl)-isoxazole-3-carboxylic acid cyclopropylamide] | 
< 10 |  |  | < 10 | N#Cc1c(Nc2ccc(Oc3ccccc3)cc2)sc(C(=O)C2CCCC2)c1N [Compound 1-195, 4-Amino-5-cyclopentanecarbonyl-2-(4-phenoxy-phenylamino)-thiophene-3-carbonitrile] | 
< 10 |  | < 10 | < 10 | Nc1c(C(=O)c2cc(-c3ccccc3)no2)sc(NC2CCCC2)c1C(=O)O [Compound 1-237, 4-Amino-2-cyclopentylamino-5-(3-phenyl-isoxazole-5-carbonyl)-thiophene-3-carboxylic acid] | 
< 10 |  | < 10 | < 10 | Cc1c(Nc2ccccc2)sc(C(=O)c2ccc(Cl)cc2)c1N [Compound 1-238, (3-Amino-4-methyl-5-phenylamino-thiophen-2-yl)-(4-chloro-phenyl)-methanone] | 
< 10 |  | > 10 | > 10 | Cc1c(Nc2ccc(Oc3ccccc3)cc2)sc(C(=O)c2ccccc2)c1N [Compound 1-239, [3-Amino-4-methyl-5-(4-phenoxy-phenylamino)-thiophen-2-yl]-phenyl-methanone] | 
< 10 |  | < 10 | > 10 | CCc1c(Nc2ccc(Oc3ccccc3)cc2)sc(C(=O)c2ccccc2)c1N [Compound 1-243, [3-Amino-5-ethyl-5-(4-phenoxy-phenylamino)-thiophen-2-yl]-phenyl-methanone] | 
< 10 | > 10 |  | > 10 | CC(C)C(C)Nc1sc(C(=O)c2cc(-c3ccc(Cl)c(Cl)c3)no2)c(N)c1C#N (stereo not drawn) [Compound 1-246, 4-Amino-5-[3-(3,4-dichloro-phenyl)-isoxazole-5-carbonyl]-2-(1,2-dimethyl-propylamino)-thiophene-3-carbonitrile] | 
 |  |  |  | Nc1nc(Nc2c(Cl)cccc2Cl)sc1C(=O)c1ccccc1 [Compound 2-30, [4-Amino-2-(2,6-dichloro-phenylamino)-thiazol-5-yl]-phenyl-methanone] | IC50 [1, 7]: < 10 µM; IC50 (PDE4D; [8]): < 10 µM; IC50 [2, 9]: < 10 µM
 |  |  |  | Nc1nc(Nc2ccc(Oc3ccccc3)cc2)sc1C(=O)c1ccccc1 [Compound 2-67, [4-Amino-2-(4-phenoxy-phenylamino)-thiazol-5-yl]-phenyl-methanone] | IC50 [1, 7]: < 10 µM; IC50 [2, 9]: < 10 µM
 |  |  |  | Nc1nc(Nc2ccc(Cl)cc2)sc1C(=O)C1CCCC1 [Compound 2-92, [4-Amino-2-(4-chloro-phenylamino)-thiazol-5-yl]-cyclopentyl-methanone] | IC50 [1, 7]: < 10 µM; IC50 (PDE4D; [8]): < 10 µM; IC50 [2, 9]: < 10 µM
 |  |  |  | COc1cc(NS(=O)(=O)Cc2ccccc2)c2ncccc2c1 [Compound 3-54, N-(6-Methoxy-quinolin-8-yl)-C-phenyl-methanesulfonamide] | IC50 [1, 10]: > 10 µM; IC50 (PDE4D; [11]): > 10 µM
 |  |  |  | COc1cc(NS(=O)(=O)c2ccc(F)cc2)c2ncccc2c1 [Compound 3-55, 4-Fluoro-N-(6-methoxy-quinolin-8-yl)-benzenesulfonamide] | IC50 [1, 10]: > 10 µM; IC50 (PDE4D; [11]): > 10 µM
 |  |  |  | COc1cc(NS(=O)(=O)c2cccc(F)c2)c2ncccc2c1 [Compound 3-56, 3-Fluoro-N-(6-methoxy-quinolin-8-yl)-benzenesulfonamide] | IC50 [1, 10]: > 10 µM; IC50 (PDE4D; [11]): > 10 µM
 |  |  |  | COc1cc(NS(=O)(=O)c2ccccc2C)c2ncccc2c1 [Compound 3-57, N-(6-Methoxy-quinolin-8-yl)-2-methyl-benzenesulfonamide] | IC50 [1, 10]: > 10 µM; IC50 (PDE4D; [11]): > 10 µM
 |  |  |  | COc1cc(NS(=O)(=O)c2cc(C)ccc2OC)c2ncccc2c1 [Compound 3-58, 2-Methoxy-N-(6-methoxy-quinolin-8-yl)-5-methyl-benzenesulfonamide] | IC50 [1, 10]: > 10 µM; IC50 (PDE4D; [11]): > 10 µM
 |  |  |  | Cc1nccc(-c2cccc(S(=O)(=O)Nc3cccc4cccnc34)c2)n1 [Compound 3-66, 3-(2-Methyl-pyrimidin-4-yl)-N-quinolin-8-yl-benzenesulfonamide] | IC50 [1, 10]: < 10 µM; IC50 (PDE4D; [11]): < 10 µM
